Source: ChEMBL document CHEMBL1139647, “Synthesis and biological characterization of [3H] (2-amino-4,5,6,7-tetrahydrobenzo[b]thiophen-3-yl)-(4-chlorophenyl)-methanone, the first radiolabelled adenosine A1 allosteric enhancer” (Bioorg Med Chem Lett, 2006)
Activity calls are given as the source filed them. No cut-off for these calls is given here.

Columns and labels:
[1] = molecular target: T1, Adenosine receptor A1 (Homo sapiens) (UniProt P30542); experiment: Increase in agonist-specific binding of [3H]CCPA to human adenosine A1 receptor in CHO membranes; assay type: functional, cell membranes
T1 sequence (whole entry): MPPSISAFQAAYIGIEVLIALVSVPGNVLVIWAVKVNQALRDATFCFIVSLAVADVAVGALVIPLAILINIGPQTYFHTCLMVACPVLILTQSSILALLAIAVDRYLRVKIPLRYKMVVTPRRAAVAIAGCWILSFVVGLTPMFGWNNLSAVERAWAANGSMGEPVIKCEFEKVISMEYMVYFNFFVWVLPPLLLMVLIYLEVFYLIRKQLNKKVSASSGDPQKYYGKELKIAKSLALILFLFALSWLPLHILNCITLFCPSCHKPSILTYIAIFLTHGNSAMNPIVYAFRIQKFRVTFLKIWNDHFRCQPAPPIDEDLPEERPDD

[2] = molecular target: T1, Adenosine receptor A1 (Homo sapiens); experiment: Increase in Bmax for binding of [3H]CCPA to human adenosine A1 receptor in CHO membranes; assay type: cell membranes
[3] = molecular target: Adenosine receptor A2a (Homo sapiens) (UniProt P29274); experiment: Increase in binding of [3H]CGS 21680 to human adenosine A2A receptor in CHO membranes; assay type: cell membranes
[4] = molecular target: T1, Adenosine receptor A1 (Homo sapiens); experiment: Activity measured by decrease in cAMP content employing CHO cells expressing human A1 receptor at 10 uM; assay type: functional, cell-based; design: scale not given: the % may be the effect or the level left
[5] = molecular target: T2, Adenosine receptor A1 (Rattus norvegicus) (UniProt P25099); experiment: Increase in Bmax for binding of [3H]CCPA to adenosine A1 receptor in rat cortex
T2 sequence (whole entry): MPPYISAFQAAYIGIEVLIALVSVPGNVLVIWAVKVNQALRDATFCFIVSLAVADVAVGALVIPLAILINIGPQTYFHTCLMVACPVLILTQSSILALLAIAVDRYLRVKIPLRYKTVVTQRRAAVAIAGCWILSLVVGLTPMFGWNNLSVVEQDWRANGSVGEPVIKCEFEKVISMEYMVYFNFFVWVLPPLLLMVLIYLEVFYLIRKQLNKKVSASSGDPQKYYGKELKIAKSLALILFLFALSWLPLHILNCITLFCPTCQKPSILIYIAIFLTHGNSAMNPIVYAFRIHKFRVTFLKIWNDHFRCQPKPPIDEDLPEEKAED

[6] = molecular target: T3, Adenosine receptor A3 (Homo sapiens) (UniProt P0DMS8); experiment: Increase in binding of [125I]AB-MECA to human adenosine A3 receptor in CHO membranes; assay type: cell membranes
T3 sequence (whole entry): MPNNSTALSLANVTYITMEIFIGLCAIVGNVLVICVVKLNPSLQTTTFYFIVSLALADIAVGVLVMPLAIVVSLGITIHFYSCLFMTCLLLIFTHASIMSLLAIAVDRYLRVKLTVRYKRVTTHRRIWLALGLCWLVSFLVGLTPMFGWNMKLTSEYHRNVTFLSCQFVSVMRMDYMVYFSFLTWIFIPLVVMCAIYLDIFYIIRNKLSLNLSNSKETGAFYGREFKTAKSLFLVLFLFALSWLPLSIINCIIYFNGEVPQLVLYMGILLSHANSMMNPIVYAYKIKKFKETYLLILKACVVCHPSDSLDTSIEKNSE

[7] = molecular target: T1, Adenosine receptor A1 (Homo sapiens); experiment: Increase in Bmax for binding of [3H]CCPA to human adenosine A1 receptor in human brain membrane; assay type: cell membranes
[8] = molecular target: T2, Adenosine receptor A1 (Rattus norvegicus); experiment: Increase in agonist-specific binding of [3H]CCPA to adenosine A1 receptor in rat cortex; assay type: functional
[9] = molecular target: T1, Adenosine receptor A1 (Homo sapiens); experiment: Increase in agonist-specific binding of [3H]CCPA to human adenosine A1 receptor in human brain membranes; assay type: functional, cell membranes; conditions: Membrane
[10] = molecular target: T1, Adenosine receptor A1 (Homo sapiens); experiment: Binding density to adenosine A1 receptor in CHO membranes; assay type: cell membranes; conditions: tested as the 3H-labelled form

Adenosine receptor A2a (Homo sapiens), sequence (P29274 whole entry): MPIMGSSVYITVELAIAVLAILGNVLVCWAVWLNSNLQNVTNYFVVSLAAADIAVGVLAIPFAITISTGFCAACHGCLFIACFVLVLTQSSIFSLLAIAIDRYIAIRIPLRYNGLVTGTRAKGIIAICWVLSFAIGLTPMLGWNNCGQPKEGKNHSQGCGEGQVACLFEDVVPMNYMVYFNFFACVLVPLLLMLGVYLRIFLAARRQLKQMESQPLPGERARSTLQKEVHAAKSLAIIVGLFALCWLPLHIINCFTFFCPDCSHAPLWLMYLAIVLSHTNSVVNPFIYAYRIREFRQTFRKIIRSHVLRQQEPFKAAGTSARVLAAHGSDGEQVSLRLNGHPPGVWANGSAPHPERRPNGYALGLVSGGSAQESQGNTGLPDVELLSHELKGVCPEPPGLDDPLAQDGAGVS

- Activity [1]: 51%
- Activity [2]: 65%
- Activity [3]: inactive
- Activity [4]: 55%
- Activity [5]: 15%
- Activity [6]: inactive
- Activity [7]: 23%
- Activity [8]: 15%
- Activity [9]: 22%
- Bmax [10]: 76.5 pmol/mg
Structure (SMILES): Nc1sc2c(c1C(=O)c1ccc(Cl)cc1)CCCC2
